We go through four molecules from patent US20230265151A1, “GIP/GLP1 CO-AGONIST COMPOUNDS” (priority 2020, published 2023).

Assay [1] deals with hGLP-1R (Homo sapiens, UniProt P43220). Put plainly: Functional cAMP formation (HTRF) in HEK-293 clonal cells expressing hGLP-1R, 0.1% bovine casein, without or with 1.0% human serum albumin. To be noted: for Emax: HEK293, cAMP, percent of maximal response to GLP-1(7-36)NH2, read-out: hGLP-1R Emax, % ± SEM. More on the design: expressed in transfected cells. It is filed as cell-based. The gist of the method: (§1)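 Readings of the HTRF 665/620 nm ratio, which falls as cAMP rises, were converted to nM cAMP using a standard curve after 30 min peptide exposure at 37° C.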

Assay [2] concerns the target T1, hGIPR (Homo sapiens, UniProt P48546).
T1 construct: expressed in transfected cells
T1 sequence (P48546 22-466): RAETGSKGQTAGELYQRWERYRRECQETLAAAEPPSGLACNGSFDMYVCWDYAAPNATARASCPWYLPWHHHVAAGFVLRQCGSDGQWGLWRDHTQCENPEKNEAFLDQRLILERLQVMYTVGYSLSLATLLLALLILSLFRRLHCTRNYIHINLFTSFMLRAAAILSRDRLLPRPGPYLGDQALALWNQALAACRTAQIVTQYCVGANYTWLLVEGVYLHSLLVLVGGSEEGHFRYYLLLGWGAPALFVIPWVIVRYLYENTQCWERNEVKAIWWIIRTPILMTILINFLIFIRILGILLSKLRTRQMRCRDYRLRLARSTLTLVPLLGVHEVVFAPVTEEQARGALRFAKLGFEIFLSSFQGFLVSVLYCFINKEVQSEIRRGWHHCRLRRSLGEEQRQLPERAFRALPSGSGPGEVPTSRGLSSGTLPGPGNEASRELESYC
The assay is described as follows: Functional cAMP formation (HTRF) in HEK-293 clonal cells expressing hGIPR, 0.1% bovine casein, without or with 1.0% human serum albumin. It is filed as cell-based. The gist of the method:
as §1
(Changes in cAMP serve as a functional read-out for many G protein-coupled receptors.)

Assay [3] has as its target T2, human GLP-1 receptor (hGLP-1R) (Homo sapiens, UniProt P43220).
T2 construct: expressed in transfected cells; crude membranes
The assay is described as follows: [125I]-GLP-1 binding, SPA with membranes of HEK293 cells expressing hGLP-1R.

Assay [4] concerns the target T3, hGCGR (Homo sapiens, UniProt P47871).
T3 construct: expressed in transfected cells
The assay is described as follows: Functional cAMP formation (HTRF) in HEK-293 clonal cells expressing hGCGR, 0.1% bovine casein, without or with 1.0% human serum albumin. The assay is classed as cell-based. The gist of the method: as §1

Assay [5] addresses T4, human GIP receptor (hGIPR) (Homo sapiens, UniProt P48546).
T4 construct: expressed in transfected cells; crude membranes
T4 sequence (P48546 22-466): T1 sequence (P48546 22-466)
Put plainly: [125I]-GIP binding, SPA with membranes of CHO cells expressing hGIPR.

The mark [6] stands for this setting: 37° C., 0.1% bovine casein, arithmetic mean.
[7] abbreviates: cAMP, 37° C., 0.1% bovine casein (no human serum albumin), geometric mean, read-out: hGLP-1R EC50, nM (SEM, n).
Setting [8] is: HEK293, cAMP, 37° C., 0.1% bovine casein and 1.0% human serum albumin, percent of maximal response to GIP(1-42)NH2, read-out: hGIPR Emax, % ± SEM.
The mark [9] stands for this setting: cAMP, 37° C., 0.1% bovine casein (no human serum albumin), geometric mean, read-out: hGIPR EC50, nM (SEM, n).
The mark [10] stands for this setting: human GLP-1R, geometric mean (SEM, n), read-out: Binding Affinity Ki, nM (SEM, n) hGLP-1R.
The mark [11] stands for this setting: cAMP, 37° C., 0.1% bovine casein (no human serum albumin), geometric mean, read-out: hGCGR EC50, nM (SEM, n).
The mark [12] stands for this setting: cAMP, 37° C., 0.1% bovine casein and 1.0% human serum albumin, geometric mean (SEM, n), read-out: hGCGR EC50, nM (SEM, n).
Where [13] appears, read: human GIPR, geometric mean (SEM, n), read-out: Binding Affinity Ki, nM (SEM, n) hGIPR.

The structures appear in SMILES notation. Where two headings read alike, the source gives them in different places. Where only a bound is given, the exact number is not on record here.

T3 sequence (P47871 26-477): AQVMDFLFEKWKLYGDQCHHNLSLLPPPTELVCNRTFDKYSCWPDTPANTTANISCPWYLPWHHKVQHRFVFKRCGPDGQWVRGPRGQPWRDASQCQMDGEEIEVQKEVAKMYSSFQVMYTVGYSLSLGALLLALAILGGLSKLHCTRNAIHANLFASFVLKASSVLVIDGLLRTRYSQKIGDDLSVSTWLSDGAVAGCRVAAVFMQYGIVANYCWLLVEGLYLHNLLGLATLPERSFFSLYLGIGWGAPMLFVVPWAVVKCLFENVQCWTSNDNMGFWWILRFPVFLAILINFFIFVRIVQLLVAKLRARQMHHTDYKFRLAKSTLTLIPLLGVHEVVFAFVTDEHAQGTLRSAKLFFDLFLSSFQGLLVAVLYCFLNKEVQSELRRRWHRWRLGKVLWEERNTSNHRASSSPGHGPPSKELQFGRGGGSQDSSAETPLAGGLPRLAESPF
Chain of hGLP-1R (P43220 24-463): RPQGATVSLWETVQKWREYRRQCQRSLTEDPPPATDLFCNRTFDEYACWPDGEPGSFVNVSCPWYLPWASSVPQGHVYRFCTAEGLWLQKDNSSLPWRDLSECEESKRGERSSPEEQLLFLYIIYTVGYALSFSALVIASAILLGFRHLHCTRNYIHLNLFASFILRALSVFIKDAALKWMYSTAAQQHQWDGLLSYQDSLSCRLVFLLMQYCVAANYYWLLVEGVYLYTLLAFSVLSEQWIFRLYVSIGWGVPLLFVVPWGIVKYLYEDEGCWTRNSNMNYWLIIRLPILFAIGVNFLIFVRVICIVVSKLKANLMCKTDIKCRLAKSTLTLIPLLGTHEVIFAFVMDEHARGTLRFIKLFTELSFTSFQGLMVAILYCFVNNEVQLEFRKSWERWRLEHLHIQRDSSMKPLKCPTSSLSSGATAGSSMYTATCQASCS

Turning to `CCCCCCCCCCCC(=O)N[C@@H](CCC(=O)NCCOCCOCC(=O)NCCOCCOCC(=O)NCCCC[C@H](NC(=O)[C@H](CO)NC(=O)[C@@H]1CCCN1C(=O)[C@@H]1CCCN1C(=O)[C@@H]1CCCN1C(=O)[C@H](C)NC(=O)CNC(=O)[C@H](CO)NC(=O)[C@H](CO)NC(=O)[C@@H]1CCCN1C(=O)CNC(=O)CNC(=O)[C@H](CCC(=O)O)NC(=O)[C@@H](NC(=O)[C@H](CC(C)C)NC(=O)[C@](C)(Cc1ccc(O)cc1)NC(=O)[C@@H](CCC(=O)O)NC(=O)[C@@H](NC(=O)[C@H](Cc1ccccc1)NC(=O)[C@H](CCC(=O)O)NC(=O)C(C)(C)NC(=O)[C@H](CCC(N)=O)NC(=O)[C@H](C)NC(=O)[C@H](CCCCNC(=O)COCCOCCNC(=O)COCCOCCNC(=O)CC[C@H](NC(=O)CCCCCCCCCCC)C(=O)O)NC(=O)[C@H](CCCN)NC(=O)[C@H](CC(=O)O)NC(=O)[C@H](CC(C)C)NC(=O)[C@](C)(CC(C)C)NC(=O)[C@@H](NC(=O)C(C)(C)NC(=O)[C@H](Cc1ccncc1)NC(=O)[C@H](CC(=O)O)NC(=O)[C@H](CO)NC(=O)[C@@H](NC(=O)[C@](C)(Cc1ccccc1F)NC(=O)[C@@H](NC(=O)CNC(=O)[C@H](CCC(=O)O)NC(=O)C(C)(C)NC(=O)[C@@H](N)Cc1ccc(O)cc1)[C@@H](C)O)[C@@H](C)O)[C@@H](C)CC)[C@@H](C)CC)[C@@H](C)CC)C(N)=O)C(=O)O` [Example 324], the maximal response (Emax) turned out to be 99.4% in assay [1] (37° C., 0.1% bovine casein and 1.0% human serum albumin); 97.6% in assay [1] (setting [6]); 85.4% in assay [2] (setting [8]). In addition, the EC50 was 0.0647 nM in assay [1] (setting [7]); 4.38 nM in assay [1] (cAMP, 37° C., 0.1% bovine casein and 1.0% human serum albumin, geometric mean (SEM, n), read-out: hGLP-1R EC50, nM (SEM, n)); 0.00632 nM in assay [2] (setting [9]); over 9950 nM in assay [4] (setting [11]); over 9950 nM in assay [4] (setting [12]). Further, the Ki was found to be 0.168 nM in assay [3] (setting [10]) and 0.0163 nM in assay [5] (setting [13]).

With `CC[C@H](C)[C@H](NC(=O)[C@H](CC(C)C)NC(=O)[C@](C)(Cc1ccc(O)cc1)NC(=O)[C@@H](CCC(=O)O)NC(=O)[C@@H](NC(=O)[C@H](Cc1ccccc1)NC(=O)[C@H](CCC(=O)O)NC(=O)C(C)(C)NC(=O)[C@H](CCC(N)=O)NC(=O)[C@H](C)NC(=O)[C@H](CCCCNC(=O)COCCOCCNC(=O)COCCOCCNC(=O)CC[C@H](NC(=O)CCCc1ccc(C(C)(C)C)cc1)C(=O)O)NC(=O)[C@H](CCCN)NC(=O)[C@H](CC(=O)O)NC(=O)[C@H](CC(C)C)NC(=O)[C@](C)(CC(C)C)NC(=O)[C@@H](NC(=O)[C@H](CO)NC(=O)[C@H](Cc1ccncc1)NC(=O)[C@H](CC(=O)O)NC(=O)[C@H](CO)NC(=O)[C@@H](NC(=O)[C@](C)(Cc1ccccc1F)NC(=O)[C@@H](NC(=O)CNC(=O)[C@H](CCC(=O)O)NC(=O)C(C)(C)NC(=O)[C@@H](N)Cc1ccc(O)cc1)[C@@H](C)O)[C@@H](C)O)[C@@H](C)CC)[C@@H](C)CC)C(=O)N[C@@H](CCC(=O)O)C(=O)NCC(=O)NCC(=O)N[C@@H](CCCCNC(=O)COCCOCCNC(=O)COCCOCCNC(=O)CC[C@H](NC(=O)CCCc1ccc(C(C)(C)C)cc1)C(=O)O)C(=O)N[C@@H](CO)C(=O)N[C@@H](CO)C(=O)NCC(=O)N[C@@H](C)C(=O)N1CCC[C@H]1C(=O)N1CCC[C@H]1C(=O)N1CCC[C@H]1C(=O)N[C@@H](CO)C(N)=O` [Example 4], the EC50 in assay [1] (hGLP-1R EC50, nM (SEM, n), 0.1% bovine casein and 1.0% human serum albumin, 37° C., geometric mean) is 0.584 nM; in assay [1] (hGLP-1R EC50, nM (SEM, n), cAMP, incubated at 37° C., 0.1% bovine casein (no human serum albumin), geometric mean), 0.137 nM; in assay [2] (hGIPR EC50, nM (SEM, n), 0.1% bovine casein and 1.0% human serum albumin, 37° C., geometric mean), 0.0296 nM; in assay [4] (hGCGR EC50, nM (SEM, n), 0.1% bovine casein and 1.0% human serum albumin, 37° C., geometric mean), over 9950 nM; in assay [4] (hGCGR EC50, nM (SEM, n), cAMP, incubated at 37° C., 0.1% bovine casein (no human serum albumin), geometric mean), over 9950 nM. The Emax came to 88.3 ± 2.17% in assay [2] (HEK293, read-out: hGIPR Emax, % ± SEM, 0.1% bovine casein and 1.0% human serum albumin, 37° C., percent of maximal response to GIP(1-42)NH2); 92.9 ± 0.381% in assay [2] (HEK293, read-out: hGIPR Emax, % ± SEM, percent of maximal response to GIP(1-42)NH2, 37° C., 0.1% bovine casein, arithmetic mean). Also, the Ki turned out to be 0.413 nM in assay [3] and 0.0528 nM in assay [5].

Regarding `CC[C@H](C)[C@H](NC(=O)[C@H](CC(C)C)NC(=O)[C@](C)(Cc1ccc(O)cc1)NC(=O)[C@H](CCCCNC(=O)COCCOCCNC(=O)CCCCCNC(=O)CC[C@H](NC(=O)CCCCCCCCCCCCC(=O)O)C(=O)O)NC(=O)[C@@H](NC(=O)[C@H](Cc1ccccc1)NC(=O)[C@H](CCCN)NC(=O)C(C)(C)NC(=O)[C@H](CCC(N)=O)NC(=O)[C@H](C)NC(=O)[C@H](CCC(N)=O)NC(=O)[C@H](CCCN)NC(=O)[C@H](CC(=O)O)NC(=O)[C@H](CC(C)C)NC(=O)[C@](C)(CC(C)C)NC(=O)[C@@H](NC(=O)C(C)(C)NC(=O)[C@H](Cc1ccncc1)NC(=O)[C@H](CC(=O)O)NC(=O)[C@H](CO)NC(=O)[C@@H](NC(=O)[C@](C)(Cc1ccccc1F)NC(=O)[C@@H](NC(=O)CNC(=O)[C@H](CCC(=O)O)NC(=O)C(C)(C)NC(=O)[C@@H](N)Cc1ccc(O)cc1)[C@@H](C)O)[C@@H](C)O)[C@@H](C)CC)[C@@H](C)CC)C(=O)N[C@@H](CCCCNC(=O)COCCOCCNC(=O)CCCCCNC(=O)CC[C@H](NC(=O)CCCCCCCCCCCCC(=O)O)C(=O)O)C(=O)NCC(=O)NCC(=O)N1CCC[C@H]1C(=O)N[C@@H](CO)C(=O)N[C@@H](CO)C(=O)NCC(=O)N[C@@H](C)C(=O)N1CCC[C@H]1C(=O)N1CCC[C@H]1C(=O)N1CCC[C@H]1C(=O)N[C@@H](CO)C(N)=O` [Example 449], the maximal effect (Emax) came out at 112% in assay [1] (setting [6]) and 92.1% in assay [2] (setting [8]). For the same molecule, the 50% effective concentration (EC50) in assay [1] (setting [7]) was 0.16 nM; in assay [2] (setting [9]), 0.0102 nM; in assay [2] (cAMP, 37° C., 0.1% bovine casein and 1.0% human serum albumin, geometric mean (SEM, n), read-out: hGIPR EC50, nM (SEM, n)), 0.595 nM; in assay [4] (setting [11]), over 9950 nM; in assay [4] (setting [12]) it was over 9950 nM. Also, the figures for the Ki in assay [3] (setting [10]) and in assay [5] (setting [13]) were 0.201 nM and 0.0133 nM, respectively.

With `CCCCCCCCCCCC(=O)N[C@@H](CCC(=O)NCCOCCOCC(=O)NCCOCCOCC(=O)NCCOCCOCC(=O)NCCCC[C@H](NC(=O)[C@H](CCCN)NC(=O)[C@H](CC(=O)O)NC(=O)[C@H](CC(C)C)NC(=O)[C@](C)(CC(C)C)NC(=O)[C@@H](NC(=O)C(C)(C)NC(=O)[C@H](Cc1ccncc1)NC(=O)[C@H](CC(=O)O)NC(=O)[C@H](CO)NC(=O)[C@@H](NC(=O)[C@](C)(Cc1ccccc1F)NC(=O)[C@@H](NC(=O)CNC(=O)[C@H](CCC(=O)O)NC(=O)C(C)(C)NC(=O)[C@@H](N)Cc1ccc(O)cc1)[C@@H](C)O)[C@@H](C)O)[C@@H](C)CC)C(=O)N[C@@H](C)C(=O)N[C@@H](CCC(N)=O)C(=O)NC(C)(C)C(=O)N[C@@H](CCC(=O)O)C(=O)N[C@@H](Cc1ccccc1)C(=O)N[C@H](C(=O)N[C@H](CCC(=O)O)C(=O)N[C@@](C)(Cc1ccc(O)cc1)C(=O)N[C@@H](CC(C)C)C(=O)N[C@H](C(=O)N[C@@H](CCCCNC(=O)COCCOCCNC(=O)COCCOCCNC(=O)COCCOCCNC(=O)CC[C@H](NC(=O)CCCCCCCCCCC)C(=O)O)C(=O)NCC(=O)NCC(=O)N1CCC[C@H]1C(=O)N[C@@H](CO)C(=O)N[C@@H](CO)C(=O)NCC(=O)N[C@@H](C)C(=O)N1CCC[C@H]1C(=O)N1CCC[C@H]1C(=O)N1CCC[C@H]1C(=O)N[C@@H](CO)C(N)=O)[C@@H](C)CC)[C@@H](C)CC)C(=O)O` [Example 423], the Emax turned out to be 105% in assay [1] (setting [6]) and 89.7% in assay [2] (setting [8]). In addition, the EC50 is 0.0721 nM in assay [1] (setting [7]), 0.00658 nM in assay [2] (setting [9]), over 9950 nM in assay [4] (setting [11]) and over 9950 nM in assay [4] (setting [12]). The Ki in assay [3] (setting [10]) was 0.275 nM; in assay [5] (setting [13]) it was 0.0207 nM.

A word on the Emax: it is the greatest response seen or fitted, relative to the assay's reference. A word on the EC50: it is the midpoint of the concentration-response curve. As usually defined, the Ki is a dissociation constant, usually derived from enzyme kinetics or from competition with a known ligand.
